# Data published in US20170209346A1, “SHAPED CELLULOSE BODIES WITH PHYSIOLOGICALLY ACTIVE MINERAL SUBSTANCES DISTRIBUTED THEREIN” (smartpolymer GmbH, priority 2014, published 2017).
# Read-outs that look alike come from different tables or passages of the source.
# Tests used:
# [1] = literature data, cited from earlier work
# [2] = Solubility of mineral compounds in water; conditions: at 20° C.; chemically pure material used in Example 1
# Description: The mineral compounds contain at least one mineral from the group consisting of sodium, potassium, calcium and magnesium and zinc. […] Water solubility is a prerequisite for the activity of the mineral compounds used, since corresponding anions and cations can thus be released.
# This reported solubility is based on literature data. This list in no way restricts the actual multiplicity of possible mineral compounds having the required properties.
compound,measurement,setting,value
[O]=[Mg] [Magnesium oxide],solubility in water,[1]; temperature not given,12 µg/mL
[O]=[Zn] [Zinc oxide],solubility in water,[1]; 29° C.,1.6 µg/mL
"[O]=[Mg] [type 1 magnesium oxide, magnesium oxide]",solubility in water,[2],12.5 µg/mL
Hydroxylapatite,solubility in water,[1]; 20° C.,6.57 µg/mL
